Measured values as given in US12678400B2, “Implantable devices for drug delivery with reduced burst release” (TITAN PHARMACEUTICALS, INC., priority 2016, dated 2026).

Assay: Particle size of spray-dried porogen powders by optical microscope
Format: physicochemical
Conditions: spray dried from ethanol solution
Text: Citric acid and benzoic acid were spray dried from ethanol solution (10% w/v solids) using a ProCepT model 4M8 system. The citric acid was collected in a single fraction in about 65% yield, while the benzoic acid was collected in two fractions with a total yield of around 55%. The powders were characterized for particle size and morphology using an Olympus BX60 optical microscope. […] The two preparations of benzoic acid differed primarily by the preponderance of ribbon-like particles in the second fraction. The citric acid powder blend was appreciably more dense than the benzoic acid powder blends, and the latter required more careful sweeping of the feeder hopper to promote conveyance. However, the ultimate extrusion, molding, and physical handling characteristics were similar between the blends.

| Structure (SMILES) | Particle size |
| --- | --- |
| O=C(O)c1ccccc1 [benzoic acid] | 30-150 μm |
| O=C(O)CC(O)(CC(=O)O)C(=O)O [citric acid] | 10-20 μm |
